According to patent US20100137315A1, “Sphingosine Kinase Inhibitors and Methods of Their Use” (APOGEE BIOTECHNOLOGY CORPORATION, priority 2005, published 2010):
Like-named read-outs stand apart in the source and are kept apart here.

Key:
physchem = type: physicochemical; conditions: aqueous with cosolvent or surfactant or cyclodextrin, in DMSO: PBS (IP) or PEG400 (oral)
[1] = tested on: MCF-7 human breast adenocarcinoma cells; experiment: Cytotoxicity, SRB assay, 48 h; type: cell-based; conditions: Homo sapiens, MCF7
Method: (§1) To further assess the biological efficacies of the Compounds in intact cells, each Compound was evaluated for cytotoxicity using human cancer cell lines. These experiments followed methods that have been extensively used. Cell lines tested included MCF-7 human breast adenocarcinoma cells. The indicated cell lines were treated with varying doses of the test Compound for 48 h. Cell survival was then determined using the SRB binding assay (Skehan et al., 1990, J Natl Cancer Inst 82: 1107), and the concentration of compound that inhibited proliferation by 50% (the IC50) was calculated. Values (in μM) represent the mean±sd for replicate trials.

T24 (bladder) = experiment: Cytotoxicity, sulforhodamine B, 48 h; type: cell-based; conditions: Homo sapiens, mean ± sd
1025LU (Melanoma) = experiment: Cytotoxicity, sulforhodamine B, 48 h; type: cell-based; conditions: Homo sapiens, mean ± sd
Method: as §1

DU145 (prostate) = experiment: Cytotoxicity, sulforhodamine B, 48 h; type: cell-based; conditions: Homo sapiens, DU-145, mean ± sd
Method: as §1

HT-29 (colon) = experiment: Cytotoxicity, sulforhodamine B, 48 h; type: cell-based; conditions: Homo sapiens, mean ± sd
Method: as §1

SK-OV-3 (ovary) = experiment: Cytotoxicity, sulforhodamine B, 48 h; type: cell-based; conditions: Homo sapiens, mean ± sd
Method: as §1

A-498 (Kidney) = experiment: Cytotoxicity, sulforhodamine B, 48 h; type: cell-based; conditions: Homo sapiens, A498, mean ± sd
Method: as §1

MDA-MB-231 (breast, ER−) = experiment: Cytotoxicity, sulforhodamine B, 48 h; type: cell-based; conditions: Homo sapiens, mean ± sd
Method: as §1

[2] = tested on: female Swiss-Webster mice; experiment: In vivo toxicity in mice; conditions: orally up to at least 100 mg/kg
[3] = tested on: JC murine adenocarcinoma cells in Balb/c mice; experiment: JC mammary adenocarcinoma syngeneic tumor model; type: in vivo; conditions: for inhibition of tumor growth relative to controls: 50 mg/kg IP every-other day, Balb/c mice; for In vivo activity: JC tumor model, intraperitoneal (ip) or oral (po)
Method: FIG. 1. Inhibition of tumor growth by SK inhibitors. Balb/c female mice were injected subcutaneously with JC murine adenocarcinoma cells suspended in PBS. After palpable tumor growth, animals were treated by intraperitoneal injection of either 0.1 mL of 50% DMSO (control, circles) or 50 mg/kg of Compound 8 (squares) or Compound 73 (triangles) on odd numbered days. Whole body weight and tumor volume measurement were performed for up to 18 days. * p<0.05. Inset: Averaged body weights of mice from each group during course of study.
FIG. 2. Dose-response relationships for inhibition of tumor growth by Compound 8. Balb/c female mice were injected subcutaneously with JC cells suspended in PBS. After palpable tumor growth, animals were treated by oral gavage of either 100 μl of PEG400 (control, circles) or Compound 8 at 3.5 mg/kg (diamonds), 10 mg/kg (inverted triangles), 35 mg/kg (triangles) or 100 mg/kg (squares) on odd numbered days. Whole body weight and tumor volume measurement were performed for up to 18 days.
The SK inhibitors Compounds 8 and 73 were dissolved in 50% DMSO and administered by intraperitoneal injection to mice every-other day at a dose of 50 mg/kg. Body weights and tumor volumes were monitored daily.

Panc-1 (pancreas) = experiment: Cytotoxicity, sulforhodamine B, 48 h; type: cell-based; conditions: Homo sapiens, mean ± sd
Caco-2 (colon) = experiment: Cytotoxicity, sulforhodamine B, 48 h; type: cell-based; conditions: Homo sapiens, mean ± sd
Hep-G2 (liver) = experiment: Cytotoxicity, sulforhodamine B, 48 h; type: cell-based; conditions: Homo sapiens, HepG2, mean ± sd
cRaf = cRaf (Homo sapiens, UniProt P04049); experiment: Kinase selectivity panel; type: biochemical; conditions: read-out: percent of control activity of cRaf
cRaf, sequence (P04049 whole entry, species assumed, the tested form may be a part): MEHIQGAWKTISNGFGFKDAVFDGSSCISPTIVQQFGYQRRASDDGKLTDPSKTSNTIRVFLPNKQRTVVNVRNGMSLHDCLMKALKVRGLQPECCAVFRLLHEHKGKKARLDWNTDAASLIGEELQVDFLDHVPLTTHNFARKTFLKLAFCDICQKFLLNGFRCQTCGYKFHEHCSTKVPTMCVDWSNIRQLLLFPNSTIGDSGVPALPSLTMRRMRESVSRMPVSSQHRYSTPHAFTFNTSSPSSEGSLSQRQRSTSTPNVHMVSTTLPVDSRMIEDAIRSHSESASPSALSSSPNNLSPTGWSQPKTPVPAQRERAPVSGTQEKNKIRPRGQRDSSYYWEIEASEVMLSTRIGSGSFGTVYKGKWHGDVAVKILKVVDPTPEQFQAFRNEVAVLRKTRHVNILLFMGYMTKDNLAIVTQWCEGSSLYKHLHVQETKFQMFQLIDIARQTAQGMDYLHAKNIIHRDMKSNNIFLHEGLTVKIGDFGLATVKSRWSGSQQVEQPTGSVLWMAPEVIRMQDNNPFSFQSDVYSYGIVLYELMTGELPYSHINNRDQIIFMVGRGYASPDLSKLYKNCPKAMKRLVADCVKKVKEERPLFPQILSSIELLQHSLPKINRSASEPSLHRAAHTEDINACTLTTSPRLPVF
Method: (§2) A common problem with previous attempts to develop protein kinase inhibitors is the lack of selectivity toward the target kinase since the majority of these compounds interact with nucleotide-binding domains that are highly conserved among kinases. To determine if compound of this invention are non-selective kinase inhibitors, the effects of the SK inhibitor, Compound 73, on a diverse panel of 20 purified kinases was determined. The compound was tested at a single concentration of 50 μM.

CDK1/cyclinB = CDK1/cyclinB (Homo sapiens, UniProt P06493); experiment: Kinase selectivity panel; type: biochemical; conditions: read-out: percent of control activity of CDK1/cyclinB
CDK1/cyclinB, sequence (P06493 whole entry, species assumed): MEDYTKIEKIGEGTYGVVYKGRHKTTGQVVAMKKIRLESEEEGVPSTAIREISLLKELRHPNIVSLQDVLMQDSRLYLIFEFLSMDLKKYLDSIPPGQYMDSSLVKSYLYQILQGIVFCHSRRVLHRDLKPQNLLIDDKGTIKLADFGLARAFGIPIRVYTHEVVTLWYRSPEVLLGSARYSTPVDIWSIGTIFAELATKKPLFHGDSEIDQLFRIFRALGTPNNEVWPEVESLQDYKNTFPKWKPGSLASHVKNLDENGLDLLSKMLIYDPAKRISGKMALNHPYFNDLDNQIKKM
CDK1/cyclinB, sequence (P14635 whole entry partner, species assumed): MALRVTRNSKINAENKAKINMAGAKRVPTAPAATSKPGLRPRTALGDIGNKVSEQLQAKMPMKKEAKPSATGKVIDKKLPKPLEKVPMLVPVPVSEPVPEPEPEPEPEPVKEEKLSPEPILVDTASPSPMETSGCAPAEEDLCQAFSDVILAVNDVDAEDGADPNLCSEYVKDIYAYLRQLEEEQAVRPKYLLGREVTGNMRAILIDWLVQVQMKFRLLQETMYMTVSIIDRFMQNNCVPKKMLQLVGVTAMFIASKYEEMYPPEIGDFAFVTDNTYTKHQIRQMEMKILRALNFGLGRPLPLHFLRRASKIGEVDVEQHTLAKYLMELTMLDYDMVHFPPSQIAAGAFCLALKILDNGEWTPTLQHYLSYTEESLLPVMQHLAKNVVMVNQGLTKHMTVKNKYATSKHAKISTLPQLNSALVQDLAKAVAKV
Method: as §2

P38 MAP kinase 1 = P38 MAP kinase 1 (Homo sapiens, UniProt Q16539); experiment: Kinase selectivity panel; type: biochemical; conditions: read-out: percent of control activity of P38 MAP kinase 1
P38 MAP kinase 1, sequence (Q16539 whole entry): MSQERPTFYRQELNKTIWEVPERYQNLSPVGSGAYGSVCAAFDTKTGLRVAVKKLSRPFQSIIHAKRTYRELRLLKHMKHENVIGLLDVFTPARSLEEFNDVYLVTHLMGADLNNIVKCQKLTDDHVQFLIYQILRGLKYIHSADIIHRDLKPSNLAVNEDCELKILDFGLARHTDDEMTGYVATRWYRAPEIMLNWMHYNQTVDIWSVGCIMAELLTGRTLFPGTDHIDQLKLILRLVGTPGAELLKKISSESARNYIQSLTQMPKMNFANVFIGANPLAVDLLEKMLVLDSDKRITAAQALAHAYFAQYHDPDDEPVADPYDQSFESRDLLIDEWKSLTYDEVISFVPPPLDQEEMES
Method: as §2

CDK2/cyclinE = CDK2/cyclinE (Homo sapiens, UniProt P24941); experiment: Kinase selectivity panel; type: biochemical; conditions: read-out: percent of control activity of CDK2/cyclinE
Method: as §2

PKBγ = PKBγ (Homo sapiens, UniProt Q9Y243); experiment: Kinase selectivity panel; type: biochemical; conditions: read-out: percent of control activity of PKBγ
PKBγ, sequence (Q9Y243 whole entry, species assumed): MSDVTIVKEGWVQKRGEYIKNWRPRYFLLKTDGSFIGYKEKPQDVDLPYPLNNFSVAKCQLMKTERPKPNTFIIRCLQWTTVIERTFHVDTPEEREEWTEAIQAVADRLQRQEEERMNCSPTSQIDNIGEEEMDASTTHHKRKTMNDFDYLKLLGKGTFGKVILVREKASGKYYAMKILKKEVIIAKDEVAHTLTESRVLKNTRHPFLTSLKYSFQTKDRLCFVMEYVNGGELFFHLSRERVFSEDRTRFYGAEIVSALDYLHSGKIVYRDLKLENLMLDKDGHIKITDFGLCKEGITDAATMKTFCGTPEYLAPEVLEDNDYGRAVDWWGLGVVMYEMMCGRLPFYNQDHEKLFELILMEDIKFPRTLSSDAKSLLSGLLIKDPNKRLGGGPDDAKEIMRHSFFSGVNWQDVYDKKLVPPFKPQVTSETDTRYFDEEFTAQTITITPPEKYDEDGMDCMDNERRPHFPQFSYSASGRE
Method: as §2

Protein kinase C α = Protein kinase C α (Homo sapiens, UniProt P17252); experiment: Kinase selectivity panel; type: biochemical; conditions: read-out: percent of control activity of Protein kinase C α
Method: as §2

MEK kinase 1 = experiment: Kinase selectivity panel; type: biochemical; conditions: 50 μM
Method: as §2

Ca^2+/calmodulin PK IV = Ca^2+/calmodulin PK IV (Homo sapiens, UniProt Q16566); experiment: Kinase selectivity panel; type: biochemical; conditions: read-out: percent of control activity of Ca^2+/calmodulin PK IV
Method: as §2

PKA = PKA (Homo sapiens, UniProt P17612); experiment: Kinase selectivity panel; type: biochemical; conditions: read-out: percent of control activity of PKA
Method: as §2

Aurora-A = Aurora-A (Homo sapiens, UniProt O14965); experiment: Kinase selectivity panel; type: biochemical; conditions: read-out: percent of control activity of Aurora-A
Aurora-A, sequence (O14965 whole entry): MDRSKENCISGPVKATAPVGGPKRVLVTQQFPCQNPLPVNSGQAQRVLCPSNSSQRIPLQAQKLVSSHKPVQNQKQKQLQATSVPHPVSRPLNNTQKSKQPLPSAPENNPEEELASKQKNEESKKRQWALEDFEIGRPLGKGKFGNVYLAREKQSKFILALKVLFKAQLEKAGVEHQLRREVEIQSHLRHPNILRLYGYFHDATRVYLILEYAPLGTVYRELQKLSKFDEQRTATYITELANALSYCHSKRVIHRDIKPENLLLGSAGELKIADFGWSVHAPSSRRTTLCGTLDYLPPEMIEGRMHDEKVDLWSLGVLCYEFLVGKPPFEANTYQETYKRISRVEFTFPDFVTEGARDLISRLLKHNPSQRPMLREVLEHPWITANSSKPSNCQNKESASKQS
Method: as §2

[4] = tested on: diverse panel of 20 purified kinases; experiment: Kinase selectivity panel, overall statement; type: biochemical; conditions: 50 μM
Method: as §2
The panel included both serine/threonine kinases and tyrosine kinases, as well as several that are regulated by their interaction with lipids.

[5] = Table 6, 48 h, SRB, inhibition of cell proliferation, read-out: MCF-7 IC50
[6] = Table 7, 48 hours, mean ± sd, read-out: IC50 (μM) MCF-7

SMILES	solubility (physchem; read-out: solubility)	solubility (physchem; read-out: solubility (molar))	IC50 [1, 5]	IC50 [1, 6]	IC50 (T24 (bladder))	IC50 (1025LU (Melanoma))	IC50 (DU145 (prostate))	IC50 (HT-29 (colon))	IC50 (SK-OV-3 (ovary))	IC50 (A-498 (Kidney))	IC50 (MDA-MB-231 (breast, ER−))	toxicity, oral administration [2]	inhibition of tumor growth relative to controls [3]	In vivo activity [3]	IC50 (Panc-1 (pancreas))	IC50 (Caco-2 (colon))	IC50 (Hep-G2 (liver))	further results
CCCC(=O)Oc1ccc(C=CC(=O)Nc2nc(-c3ccc(Cl)cc3)cs2)cc1OC [Compound 8, Butyric acid 4-{2-[4-(4-chloro-phenyl)-thiazol-2-ylcarbamoyl]-vinyl}-2-methoxy-phenyl ester]	≥ 15 mg/mL	30 to 40 mM	6.6 µM	25.2 ± 4.7 µM	25.2 ± 2.9 µM	30.1 ± 3.9 µM	21.2 ± 1.3 µM	54.7 ± 0.1 µM	23.7 ± 3.2 µM	38.3 ± 7.7 µM	30.1 ± 3.9 µM	without noticeable toxicity	66%	active - ip and po	19 ± 2.5 µM	2.6 ± 1.2 µM	81.5 ± 38.9 µM	oral doses with antitumor activity ([3]; oral gavage 3.5-100 mg/kg on odd numbered days): ≥ 10 mg/kg; toxicity to the mice in the dose-response study ([3]; oral, any dose (3.5-100 mg/kg)): No toxicity
Clc1ccc(-c2csc(NCc3ccccc3)n2)cc1 [Compound 73, Benzyl-[4-(4-chloro-phenyl)-thiazol-2-yl]-amine]	≥ 15 mg/mL	30 to 40 mM	8.3 µM	1.8 ± 0.7 µM	22.7 ± 4.8 µM	8.3 ± 2.4 µM	6.5 ± 3.6 µM	29.9 ± 9.4 µM	10.2 ± 0.3 µM	4 ± 1.9 µM	26.6 ± 6.7 µM	without noticeable toxicity	69%	active - ip	6.7 ± 2.4 µM	6.3 ± 5.2 µM	13.8 ± 8.7 µM	remaining activity at 50 µM (cRaf): 104 ± 1%; remaining activity at 50 µM (CDK1/cyclinB): 100%; remaining activity at 50 µM (P38 MAP kinase 1): 88 ± 1%; remaining activity at 50 µM (CDK2/cyclinE): 102 ± 7%; remaining activity at 50 µM (PKBγ): 100 ± 10%; remaining activity at 50 µM (Protein kinase C α): 92 ± 1%; percent of control activity of MEK kinase 1 (MEK kinase 1): 104 ± 3%; remaining activity at 50 µM (Ca^2+/calmodulin PK IV): 113 ± 3%; remaining activity at 50 µM (PKA): 94 ± 4%; remaining activity at 50 µM (Aurora-A): 100%; inhibition of the 20 kinases of the panel [4]: none of the 20 diverse kinases tested were significantly inhibited
